Experimental data from patent US20120165403A1, “METHODS OF INHIBITING THE ACTIVITY OF HSP90 AND/OR ARYL HYDROCARBON RECEPTOR” (UNIVERSITY OF ROCHESTER, priority 2004, published 2012).

How the values were obtained:
hsp90 = experiment: Affinity chromatography on EGCG-conjugated Sepharose, hsp90 inherent to RRL; assay type: binding, rabbit; conditions: immunoblotting
Method: EGCG was conjugated to cyanogen bromide (CNBr)-activated Sepharose (Sigma). EGCG (2.5 mg) was dissolved in 5004 coupling buffer (0.1M NaHCO3, 0.5M NaCl, pH 6.0). CNBr-activated Sepharose was swelled and washed in 1 mM HCl on a sintered glass filter followed by a wash with coupling buffer. CNBr-activated Sepharose beads were added to the EGCG in coupling buffer at a final concentration of 5 mg EGCG/ml of wet gel. The coupling solution containing EGCG and Sepharose was mixed end-over end at 4° C. overnight. Remaining active groups were blocked for 2 h at room temperature in Tris-HCl (0.1M, pH 8). EGCG-conjugated Sepharose was washed with three cycles of alternating pH wash buffers (Buffer 1: 0.1M acetate, 0.5M NaCl, pH4.0; Buffer 2: 0.1M Tris-HCl, 0.5M NaCl, pH 8.0). […]
Approximately 25 μL of 1:4 diluted RRL containing ^35S-labeled in vitro transcribed protein was incubated with 40 μL of either unconjugated or EGCG-conjugated Sepharose beads in binding buffer (50% slurry). […] Protein was transferred to PVDF membrane (Millipore, Bedford, Mass.). ^35S-labeled AhR, ARNT, p23, XAP2, and hsp90 truncated and point mutants were detected by Phosphoimaging. Hsp90 inherent to RRL was detected by immunoblotting using an anti-hsp90 monoclonal antibody (Stressgen Victoria, BC Canada) followed by secondary antibody coupled to horseradish peroxidase (Jackson Immuno Research, West Grove, Pa.). […]

purified human hsp90 = target: T1, purified human hsp90 (Homo sapiens, UniProt P07900); experiment: Affinity chromatography on EGCG-conjugated Sepharose, purified hsp90; assay type: binding; conditions: purified hsp90 alone
T1 construct: purchased Stressgen
Method: EGCG was conjugated to cyanogen bromide (CNBr)-activated Sepharose (Sigma). EGCG (2.5 mg) was dissolved in 5004 coupling buffer (0.1M NaHCO3, 0.5M NaCl, pH 6.0). CNBr-activated Sepharose was swelled and washed in 1 mM HCl on a sintered glass filter followed by a wash with coupling buffer. CNBr-activated Sepharose beads were added to the EGCG in coupling buffer at a final concentration of 5 mg EGCG/ml of wet gel. The coupling solution containing EGCG and Sepharose was mixed end-over end at 4° C. overnight. Remaining active groups were blocked for 2 h at room temperature in Tris-HCl (0.1M, pH 8). EGCG-conjugated Sepharose was washed with three cycles of alternating pH wash buffers (Buffer 1: 0.1M acetate, 0.5M NaCl, pH4.0; Buffer 2: 0.1M Tris-HCl, 0.5M NaCl, pH 8.0). EGCG-conjugated beads were then equilibrated in binding buffer (0.05M Tris-HCl, 0.15M sodium chloride, pH 7.5). The control unconjugated CNBr-activated Sepharose beads were prepared as above in the absence of EGCG.
For affinity chromatography using histidine-purified XAP2 and purified human hsp90 (Stressgen), 30 μl of unconjugated or EGCG-conjugated Sepharose were incubated for 1 h at room temperature with either 1:4 diluted ^35S-XAP2 in RRL, 30 μl of histidine purified ^35S-XAP2, 0.6 μg of purified hsp90, or 20 μl of histidine purified ^35S-XAP2 in the presence of 0.6 μg of purified hsp90. […]

O=C(O[C@@H]1Cc2c(O)cc(O)cc2O[C@@H]1c1cc(O)c(O)c(O)c1)c1cc(O)c(O)c(O)c1 [EGCG, epigallocatechin gallate]
binding of hsp90 to EGCG-Sepharose (hsp90): eluted from EGCG-Sepharose | binding of purified hsp90 to EGCG-Sepharose (purified human hsp90): eluted specifically from EGCG-Sepharose
